Test results taken from patent US12643884B2, “1-(2-(4-cyclopropyl-1H-1,2,3-triazol-1-yl)acetyl)-4-hydroxypyrrolidine-2-carboxa|mide derivatives as VHL inhibitors for the treatment of anemia” (Genentech, Inc., priority 2020, dated 2026).

How the values were obtained:
[1] = target: T1, NanoLuc VHL fusion protein stably expressed in HEK 293 cells (Homo sapiens, UniProt P40337); test: VHL HEK-293 BRET Assay (VHL NanoBRET Target Engagement Assay); format: cell-based; details: for IC50: HEK293 cells, nanoBRET, geometric mean where more than one measurement, read-out: VHL binding in cells (HEK293 nanoBRET); for Ratio cell permeability shift: ratio of nanoBRET in cells to nanoBRET +Digitonin
T1 construct: expressed in transfected cells
T1 sequence (P40337 whole entry, the tested form may be a part): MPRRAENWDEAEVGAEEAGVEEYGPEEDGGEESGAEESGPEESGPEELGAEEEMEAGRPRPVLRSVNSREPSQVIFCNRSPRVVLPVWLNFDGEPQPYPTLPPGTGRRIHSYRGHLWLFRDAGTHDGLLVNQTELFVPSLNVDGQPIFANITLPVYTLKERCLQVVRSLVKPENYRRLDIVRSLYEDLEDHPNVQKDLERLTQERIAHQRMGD
T1 sequence (Q15370 whole entry partner, the tested form may be a part): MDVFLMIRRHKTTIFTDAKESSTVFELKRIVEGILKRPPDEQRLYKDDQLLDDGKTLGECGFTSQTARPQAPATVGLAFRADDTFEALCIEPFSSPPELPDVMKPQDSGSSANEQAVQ
T1 sequence (Q15369 whole entry partner, the tested form may be a part): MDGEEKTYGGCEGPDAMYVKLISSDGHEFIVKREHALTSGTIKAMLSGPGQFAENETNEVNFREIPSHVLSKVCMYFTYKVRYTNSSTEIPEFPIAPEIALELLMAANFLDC
Protocol: The VHL NanoBRET™ Target Engagement Assay analyzes the apparent affinity of test compounds for VHL in cells by competitive displacement of a VHL NanoBRET™ tracer reversibly bound to a NanoLuc® VHL fusion protein stably expressed in the cells.
Test compounds were transferred to the assay plate (384 Well White Non-Binding Corning Assay Plates (Corning-3574)) using an Echo 555 Liquid Handler (Labcyte) in 2.5 nL increments and, as appropriate, intermediate stock concentrations of compounds, in order to prepare a titration series. 50 nL of control compound (10 mM; parental unlabeled VHL antagonist; see structure below) and 50 nL of DMSO (negative control) were dispensed into the appropriate control wells. DMSO was backfilled to a final volume of 50 nL as required. 50 nl per well of 1 mM VHL NanoBRET™ Tracer in DMSO (NanoBRET™ Tracer-PEG2-590 (see structure below)) was transferred into each well using an Echo 555 (ultimately yielding a final concentration of 1 uM). HEK 293 RT VHL-NanoLuc® stable cells were cultured in DMEM High Glucose with Pyruvate, 10% fetal bovine serum, 2 mg/mL of Geneticin Selective Antibiotic (50 mg/ml) and 2 mM HEPES (1 M). Cells were seeded in Opti-MEM (Life Technologies-11058-021), 1.7×10^5 cells/mL, 40 μl per well into the assay plate, centrifuged at 500 rpm for 30 seconds and incubated for 2 hours. Max Signal control wells consisted of DMSO only treated wells. Minimum Signal control wells contained of 10 uM parental unlabeled VHL antagonist (control compound—see structure below). 3× Complete Substrate plus Inhibitor Solution was prepared in Opti-MEM (consists of a 1:166 dilution of NanoBRET™ Nano-Glo® Substrate plus a 1:500 dilution of Extracellular NanoLuc® Inhibitor in Opti-MEM), and 20 ul was dispensed into each well of the 384-well plate and centrifuged at 1000 rpm for 1 minute, then incubated for 2 minutes at room temperature. Background Signal control wells were prepared without tracer for background correction steps.
Plates were read using a PerkinElmer Envision Reader (model 2104-0020) equipped with Luminescence option (Mirror: BRET2 Enh (PE Barcode 659), Emission Filter: Omega 610LP (Barcode 504), 2nd Emission Filter: Umbelliferone 460 (Barcode 207), Measurement height: 6.5 mm, Measurement time: 1 s). The raw BRET ratio values were calculated by dividing the acceptor emission value (610 nm) by the donor emission value (460 nm) for each sample. To correct for background, the BRET ratio in the absence of tracer (average of no-tracer control samples) was subtracted from the BRET ratio of each sample. Raw BRET units were converted to milliBRET units (mBU) by multiplying each raw BRET value by 1,000. The normalized NanoBRET™ signal was calculated relative to the Max Signal control wells (DMSO treated control wells) and the Minimum Signal control wells. Percentage inhibition was calculated relative to the Minimum Signal control and Maximum Signal control wells. IC50 values were derived by four parameter curve fitting using the Robust method.

VHL = target: T2, VHL (Homo sapiens, UniProt P40337); test: VHL nanoBRET (+Digitonin); format: cell-based
T2 construct: expressed in transfected cells
T2 sequence (P40337 whole entry): as the sequence (P40337 whole entry, the tested form may be a part) above
T2 sequence (Q15370 whole entry partner): as the sequence (Q15370 whole entry partner, the tested form may be a part) above
T2 sequence (Q15369 whole entry partner): as the sequence (Q15369 whole entry partner, the tested form may be a part) above

SMILES	IC50 [1]	Ratio cell permeability shift [1]	EC50 (VHL)
CNC(=O)[C@@H]1C[C@@H](O)CN1C(=O)[C@H](C1CCN(C(C)=O)CC1)n1cc(C2CC2)nn1 [Final product from Example S9, (2S,4R)-1-((S)-2-(1-acetylpiperidin-4-yl)-2-(4-cyclopropyl-1H-1,2,3-triazol-1-yl)acetyl)-4-hydroxy-N-methylpyrrolidine-2-carboxamide]	69500 nM	26.03	2670 nM
CNC(=O)[C@@H]1C[C@@H](O)CN1C(=O)[C@H](C(C)C)n1nnc2ccccc21 (single isomer, unassigned) [Final product from Example S24]	2150 nM	0.76	2840 nM
CNC(=O)[C@@H]1C[C@@H](O)CN1C(=O)[C@H](C(C)C)n1cc(-c2ccccn2)nn1 [Final product from Example S35, (2S,4R)-4-hydroxy-N-methyl-1-((S)-3-methyl-2-(4-(pyridin-2-yl)-1H-1,2,3-triazol-1-yl)butanoyl)pyrrolidine-2-carboxamide]	1700 nM	0.85	2010 nM
CC(C)(C)[C@@H](C(=O)N1C[C@H](O)C[C@H]1C(=O)NCC(F)(F)F)n1cc(C2CC2)nn1 [Final product from Example S14, (2S,4R)-1-((S)-2-(4-cyclopropyl-1H-1,2,3-triazol-1-yl)-3,3-dimethylbutanoyl)-4-hydroxy-N-(2,2,2-trifluoroethyl)pyrrolidine-2-carboxamide]	6550 nM	1.24	5300 nM
CNC(=O)[C@@H]1C[C@@H](O)CN1C(=O)[C@@H](C(C)C)n1cc(C2CC2)nn1 (single isomer, unassigned) [Isomer B from Example S11]	> 100000 nM		> 100000 nM
CNC(=O)[C@@H]1C[C@@H](O)CN1C(=O)[C@H](C(C)C)n1nnc2c(OC)cccc21 (single isomer, unassigned) [Final product from Example S25]	2600 nM	0.68	3800 nM
CNC(=O)[C@@H]1C[C@@H](O)CN1C(=O)[C@H](C1CCCCC1)n1cc(C2CC2)nn1 [Final product from Example S3, (2S,4R)-1-((S)-2-cyclohexyl-2-(4-cyclopropyl-1H-1,2,3-triazol-1-yl)acetyl)-4-hydroxy-N-methylpyrrolidine-2-carboxamide]	1610 nM	0.96	1670 nM
CNC(=O)[C@@H]1C[C@@H](O)CN1C(=O)C(n1cc(C2CC2)nn1)C1(C)CCCCC1 (stereo partly drawn) [Final product from Example S5, (2S,4R)-1-[2-(4-cyclopropyltriazol-1-yl)-2-(1-methylcyclohexyl)acetyl]-4-hydroxy-N-methyl-pyrrolidine-2-carboxamide]	10500 nM	1.24	8450 nM
CNC(=O)[C@@H]1C[C@@H](O)CN1C(=O)[C@H](C(C)C)n1cc(-c2cncs2)nn1 (single isomer, unassigned) [Final product from Example S33]	900 nM	0.80	1120 nM
CNC(=O)[C@@H]1C[C@@H](O)CN1C(=O)[C@H](C(C)C)n1cc(-c2ccc(Cl)s2)nn1 [Final product from Example S40, (2S,4R)-1-((S)-2-(4-(5-chlorothiophen-2-yl)-1H-1,2,3-triazol-1-yl)-3-methylbutanoyl)-4-hydroxy-N-methylpyrrolidine-2-carboxamide]	570 nM	1.24	460 nM
CCNC(=O)[C@@H]1C[C@@H](O)CN1C(=O)[C@@H](n1cc(C2CC2)nn1)C(C)(C)C [Final product from Example S17, (2S,4R)-1-((S)-2-(4-cyclopropyl-1H-1,2,3-triazol-1-yl)-3,3-dimethylbutanoyl)-N-ethyl-4-hydroxypyrrolidine-2-carboxamide]	4150 nM	1.07	3890 nM
CNC(=O)[C@@H]1C[C@@H](O)CN1C(=O)[C@H](C(C)C)n1cc(C2CCC2)nn1 [Final product from Example S21, (2S,4R)-1-((S)-2-(4-cyclobutyl-1H-1,2,3-triazol-1-yl)-3-methylbutanoyl)-4-hydroxy-N-methylpyrrolidine-2-carboxamide]	2830 nM	0.86	3290 nM
CC(C)(C)[C@@H](C(=O)N1C[C@H](O)C[C@H]1C(=O)NC1(C(F)(F)F)CC1)n1cc(C2CC2)nn1 [Final product from Example S18, (2S, 4R)-1-((S)-2-(4-cyclopropyl-1H-1,2,3-triazol-1-yl)-3,3-dimethylbutanoyl)-4-hydroxy-N-(1-(trifluoromethyl)cyclopropyl)pyrrolidine-2-carboxamide]	4990 nM	1	4990 nM
CNC(=O)[C@@H]1C[C@@H](O)CN1C(=O)[C@H](C(C)C)n1cc(-c2ccncc2)nn1 [Final product from Example S37, (2S,4R)-4-hydroxy-N-methyl-1-((S)-3-methyl-2-(4-(pyridin-4-yl)-1H-1,2,3-triazol-1-yl)butanoyl)pyrrolidine-2-carboxamide]	1960 nM	1.33	1470 nM
CNC(=O)[C@@H]1C[C@@H](O)CN1C(=O)[C@H](C(C)C)n1cc(-c2ccc[nH]2)nn1 (mixture of isomers) [Final product from Example S29, (2S, 4R)-4-hydroxy-N-methyl-1-[rac-(2S)-3-methyl-2-[4-(1H-pyrrol-2-yl)triazol-1-yl]butanoyl]pyrrolidine-2-carboxamide]	2650 nM	1.26	2110 nM
CC(C)[C@@H](C(=O)N1C[C@H](O)C[C@H]1C(=O)N(C)C)n1cc(C2CC2)nn1 [Final product from Example S41, (2S,4R)-1-((S)-2-(4-cyclopropyl-1H-1,2,3-triazol-1-yl)-3-methylbutanoyl)-4-hydroxy-N,N-dimethylpyrrolidine-2-carboxamide]	49900 nM	0.69	72300 nM
CNC(=O)[C@@H]1C[C@@H](O)CN1C(=O)[C@H](C(C)C)n1cc(-c2cccnc2)nn1 [Final product from Example S36, (2S,4R)-4-hydroxy-N-methyl-1-((S)-3-methyl-2-(4-(pyridin-3-yl)-1H-1,2,3-triazol-1-yl)butanoyl)pyrrolidine-2-carboxamide]	1220 nM	1.21	1010 nM
CNC(=O)[C@@H]1C[C@@H](O)CN1C(=O)[C@H](C(C)C)n1cc(-c2ccco2)nn1 [Final product from Example S19, (2S, 4R)-1-((S)-2-(4-(furan-2-yl)-1H-1,2,3-triazol-1-yl)-3-methylbutanoyl)-4-hydroxy-N-methylpyrrolidine-2-carboxamide]	800 nM	0.90	890 nM
CNC(=O)[C@@H]1C[C@@H](O)CN1C(=O)[C@H](C1CCCCC1)n1cc(-c2ccco2)nn1 (single isomer, unassigned) [Final product from Example S23]	320 nM	0.68	470 nM
CNC(=O)[C@@H]1C[C@@H](O)CN1C(=O)[C@H](C1CCOCC1)n1cc(C2CC2)nn1 (single isomer, unassigned) [Final product from Example S6]	8040 nM	3.00	2680 nM
CNC(=O)[C@@H]1C[C@@H](O)CN1C(=O)[C@H](C(C)C)n1cc(-c2ncccn2)nn1 [Final product from Example S38, (2S,4R)-4-hydroxy-N-methyl-1-((S)-3-methyl-2-(4-(pyrimidin-2-yl)-1H-1,2,3-triazol-1-yl)butanoyl)pyrrolidine-2-carboxamide]	13800 nM	3.40	4060 nM
